Two compounds from patent US10184134B2, “Soybean event SYHT0H2 and compositions and methods for detection thereof” (Syngenta Participations AG, priority 2010, dated 2019) can be followed below.

Holding throughout (assay type): in vivo
Assay [1] deals with non-transgenic soybean line Jack. As to the kind of experiment: Field efficacy against glufosinate, non-transgenic soybean line Jack. The conditions noted are these: 900 g ai/ha glufosinate at V2/V3 stage and second treatment at V5-V6 stage, 8 locations in the United States. How it is done:
(§1) SYHT0H2 soybean plants were tested for efficacy against glufosinate in 8 locations in the United States. The non-transgenic soybean line Jack was used as a control. Soybean plants, both SYHT0H2 and Jack, were treated with 900 g ai/ha of glufosinate at the V2/V3 stage and then a second treatment at the V5-V6 stage. They were then assessed for percentage of leaves showing injury at 4-8 days after treatment (DAT), 13-20 DAT, and 26-35 DAT.

Another assay deals with SYHT0H2 soybean plants. Nature of the assay: Field efficacy against glufosinate, SYHT0H2 soybean plants. The conditions noted are these: 900 g ai/ha glufosinate at V2/V3 stage and second treatment at V5-V6 stage, 8 locations in the United States. The procedure:
as §1

The test system of assay [2] is Event SYHT0H2 soybean plants. Nature of the assay: Field efficacy against mesotrione, event SYHT0H2 soybean plants. The conditions noted are these: 210 g ai/ha mesotrione at V2/V3 stage, 5 locations in the United States. How it is done:
(§2) Event SYHT0H2 soybean plants were tested for efficacy against mesotrione in 5 locations in the United States. The non-transgenic soybean line Jack was used as a control. Soybean plants, both SYHT0H2 and Jack, were treated with 210 g ai/ha of mesotrione at the V2/V3 stage and then assessed for percentage of leaves showing injury at 4-7 days after treatment (DAT), 13-17 DAT, and 25-33 DAT.

Assay [3] deals with Event SYHT0H2 soybean plants. As to the kind of experiment: Herbicide tolerance performance of transgenic soybean transformants. Conditions: event SYHT0H2 from a population of about 90 transformants. From the text:
After plants became established in the soil and new growth appeared (˜1-2 weeks), plants were sampled and tested for the presence of desired transgene by TAQMAN® analysis using appropriate probes for the HPPD genes, or promoters (for example prCMP). Positive plants were transplanted into 4″ square pots containing Fafard #3 soil. Sierra 17-6-12 slow release fertilizer was incorporated into the soil at the recommended rate. The plants were then relocated into a standard greenhouse to acclimatize (˜1 week). The environmental conditions were: 27° C. day; 21° C. night; 14 hour photoperiod (with supplemental light); ambient humidity. After acclimatizing (˜1 week), the plants were sampled and tested in detail for the presence and copy number of inserted transgenes. Transgenic soybean plants were grown to maturity for T1 seed production. T1 plants were grown up, and after TAQMAN® analysis, homozygous plants were grown for seed production. Transgenic seeds and progeny plants were used to further evaluate their herbicide tolerance performance and molecular characteristics.

Assay [4] concerns non-transgenic soybean line Jack. As to the kind of experiment: Field efficacy against mesotrione, non-transgenic soybean line Jack. Conditions: 210 g ai/ha mesotrione at V2/V3 stage, 5 locations in the United States. The procedure:
as §2

With “2-amino-4-methylphosphinobutyric acid [glufosinate]”, the “% Injury (percentage of leaves showing injury)” value in assay [1] (4-8 DAT) was found to be 100%; in assay [1] (13-20 DAT), 100%; in assay [1] (26-35 DAT), 100%; with SYHT0H2 soybean plants (4-8 DAT), 9%; in the assay on SYHT0H2 soybean plants (13-20 DAT), 5%; with SYHT0H2 soybean plants (26-35 DAT) it was 0%.

In the case of `CS(=O)(=O)c1ccc(C(=O)C2C(=O)CCCC2=O)c([N+](=O)[O-])c1` [mesotrione], the “% Injury (percentage of leaves showing injury)” value came to 13.2% in assay [2] (4-7 DAT); 4.7% in assay [2] (13-17 DAT); 0% in assay [2] (25-33 DAT); 46.5% in assay [4] (4-7 DAT); 81% in assay [4] (13-17 DAT); 62.4% in assay [4] (25-33 DAT). Moreover, the “herbicide tolerance of event SYHT0H2” value in assay [3] was “high level of mesotrione tolerance”.
